Assay [1] concerns hGYS1 enzyme / glycogen synthesis in HeLa cells. Briefly: GYS1 cell based assay (glycogen synthesis, Glucose-glo). The following applies: 24 h incubation, 20 mM glucose, geometric mean of at least 2 runs. Also noted: species or system human. In short, it runs like this:
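HeLa cells starved 24 h in medium containing only 1× Glutamax were plated onto compound in medium with 20 mM glucose (1% DMSO final) for 24 h, 37 °C, 5% CO2. Acid lysates were Tris-quenched, glucoamylase-digested (pH 5.3, 1 h, 37 °C) and read by Glucose-glo luminescence. IC50 came from Hill fits, as geometric mean of ≥2 runs.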

For assay [2], the target named is hGYS1 enzyme (recombinant hGYS1/GN1 protein) (Homo sapiens (Human), UniProt P13807). Briefly: GYS1 coupled enzyme assay (PK/LDH). The format is biochemical. The following applies: hGYS1/GN1 50 nM, UDP-Glucose 0.8 mM, G6P 1 mM; geometric mean of at least 2 runs.
Chain of hGYS1 enzyme (recombinant hGYS1/GN1 protein) (P13807 whole entry): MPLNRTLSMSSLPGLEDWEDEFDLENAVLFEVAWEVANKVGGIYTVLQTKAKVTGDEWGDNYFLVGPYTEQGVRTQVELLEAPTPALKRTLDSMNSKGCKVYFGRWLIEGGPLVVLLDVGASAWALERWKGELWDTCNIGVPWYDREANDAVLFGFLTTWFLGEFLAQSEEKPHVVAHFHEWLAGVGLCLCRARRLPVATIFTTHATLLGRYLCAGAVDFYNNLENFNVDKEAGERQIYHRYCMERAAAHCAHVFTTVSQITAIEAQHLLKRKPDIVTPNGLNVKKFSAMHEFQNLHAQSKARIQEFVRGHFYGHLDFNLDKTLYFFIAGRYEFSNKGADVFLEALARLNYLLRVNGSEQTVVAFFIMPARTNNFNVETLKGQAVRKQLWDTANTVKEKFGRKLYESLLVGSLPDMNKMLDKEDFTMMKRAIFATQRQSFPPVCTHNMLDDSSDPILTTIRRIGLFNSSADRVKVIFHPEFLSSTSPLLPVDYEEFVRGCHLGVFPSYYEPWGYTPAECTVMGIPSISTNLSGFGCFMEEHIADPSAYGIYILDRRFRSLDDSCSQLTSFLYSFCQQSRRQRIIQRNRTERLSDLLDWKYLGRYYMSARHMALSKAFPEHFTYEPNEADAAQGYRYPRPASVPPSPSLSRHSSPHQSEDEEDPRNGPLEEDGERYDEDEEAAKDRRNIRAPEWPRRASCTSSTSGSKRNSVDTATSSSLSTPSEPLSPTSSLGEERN
Chain of hGYS1 enzyme (recombinant hGYS1/GN1 protein) (P46976 whole entry partner): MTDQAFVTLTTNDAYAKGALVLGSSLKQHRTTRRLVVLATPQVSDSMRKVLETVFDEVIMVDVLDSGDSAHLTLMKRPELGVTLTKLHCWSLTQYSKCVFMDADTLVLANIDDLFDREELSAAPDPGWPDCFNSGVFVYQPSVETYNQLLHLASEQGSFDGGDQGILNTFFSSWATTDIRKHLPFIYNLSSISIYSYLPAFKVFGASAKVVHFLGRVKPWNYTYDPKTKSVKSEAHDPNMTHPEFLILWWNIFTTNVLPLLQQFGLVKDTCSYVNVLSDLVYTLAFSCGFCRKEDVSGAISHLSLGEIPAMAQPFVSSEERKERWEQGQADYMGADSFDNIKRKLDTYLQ
The target of assay [3] is hGYS2 enzyme (recombinant hGYS2/GN1 protein) (Homo sapiens (Human), UniProt P54840). The assay can be described thus: GYS2 coupled enzyme assay (PK/LDH). The assay is classed as biochemical. The following applies: geometric mean of at least 2 assay runs on separate days, read-out: Avg_IC50. The essentials:
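Continuous PK/LDH-coupled readout of NADH loss at 340 nm over 10 min, with 200 nM hGYS2/GN1 and 2 mM each of UDP-glucose, glucose-6-phosphate and PEP, in 50 mM Tris pH 7.5 with 0.2% glycogen and 2.5% DMSO. Slopes were normalized to controls and IC50s fit to a Hill curve from duplicates.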

The structures appear in SMILES notation.

Chain of hGYS2 enzyme (recombinant hGYS2/GN1 protein) (P54840 whole entry): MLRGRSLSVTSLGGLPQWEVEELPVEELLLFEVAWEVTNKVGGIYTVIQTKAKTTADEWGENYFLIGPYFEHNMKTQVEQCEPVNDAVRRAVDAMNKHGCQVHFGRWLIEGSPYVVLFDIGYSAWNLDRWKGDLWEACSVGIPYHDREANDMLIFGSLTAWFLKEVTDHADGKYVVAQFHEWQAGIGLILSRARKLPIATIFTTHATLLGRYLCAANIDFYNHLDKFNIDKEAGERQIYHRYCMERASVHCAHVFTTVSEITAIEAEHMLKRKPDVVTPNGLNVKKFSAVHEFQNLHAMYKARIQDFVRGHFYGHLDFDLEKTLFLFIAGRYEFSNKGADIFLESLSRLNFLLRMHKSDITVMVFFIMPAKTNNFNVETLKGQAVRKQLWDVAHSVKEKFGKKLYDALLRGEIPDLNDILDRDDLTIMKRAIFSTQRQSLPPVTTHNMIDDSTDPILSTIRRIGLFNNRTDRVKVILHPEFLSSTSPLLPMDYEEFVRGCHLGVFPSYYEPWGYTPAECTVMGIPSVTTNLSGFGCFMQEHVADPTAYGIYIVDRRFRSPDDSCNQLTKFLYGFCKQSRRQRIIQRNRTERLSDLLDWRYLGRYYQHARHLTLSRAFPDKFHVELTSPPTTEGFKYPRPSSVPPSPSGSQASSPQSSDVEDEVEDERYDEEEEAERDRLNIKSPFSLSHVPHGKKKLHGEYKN
Chain of hGYS2 enzyme (recombinant hGYS2/GN1 protein) (P46976 whole entry partner): as the sequence (P46976 whole entry partner) above

As for `O=C(N[C@@H](c1ccccc1)c1ccc(C2CC2)c(F)n1)[C@@H]1C[C@@H](F)CN1C(=O)Cn1nnnc1C(F)F` [Compound 293, (2S,4R)-N-((S)-(5-cyclopropl-6-fluoropyridin-2-yl)(phenyl)methyl)-1-(2-(5-(difluoromethyl)-1H-tetrazol-1-yl)acetyl)-4-fluoropyrrolidine-2-carboxamide], the IC50 in assay [1] (Homo sapiens, HeLa, 24 h) is 660 nM; in assay [2] it was 38 nM; in assay [3], above 100000 nM.

Turning to `O=C(N[C@@H](c1ccccc1)c1ccc(C2CC(F)(F)C2)c(F)c1)[C@@H]1C[C@@H](F)CN1C(=O)Cc1ncco1` [Compound 552, (2S,4R)-N-[(S)-[4-(3,3-difluorocyclobutyl)-3-fluorophenyl](phenyl)methyl]-4-fluoro-1-[2-(1,3-oxazol-2-yl)acetyl]pyrrolidine-2-carboxamide], the IC50 in assay [1] (Homo sapiens, HeLa, 24 h) was 1120 nM; in assay [2], 82 nM; in assay [3], above 100000 nM.

For `CC(C)c1ccc([C@@H](NC(=O)[C@@H]2CC[C@H](C)N2C(=O)Cc2cnn[nH]2)c2ccccc2)cc1F` [Compound 323, (2S,5S)-N-[(S)-[3-fluoro-4-(propan-2-yl)phenyl](phenyl)methyl]-5-methyl-1-[2-(1H-1,2,3-triazol-5-yl)acetyl]pyrrolidine-2-carboxamide], the IC50 was 900 nM in assay [1] (Homo sapiens, HeLa, 24 h); 74 nM in assay [2]; above 100000 nM in assay [3].

`CC(C)c1ccc([C@@H](NC(=O)[C@@H]2C[C@@H](F)CN2C(=O)CNC(=O)N2CCC2)c2ccccc2)nc1F` [Compound 399, (2S,4R)-1-{2-[(azetidine-1-carbonyl)amino]acetyl}-4-fluoro-N-[(S)-[6-fluoro-5-(propan-2-yl)pyridin-2-yl](phenyl)methyl] pyrrolidine-2-carboxamide]: the IC50 is 150 nM in assay [1] (Homo sapiens, HeLa, 24 h); 8 nM in assay [2]; above 100000 nM in assay [3].

Consider `O=C(N[C@@H](c1ccccc1)c1ccc(C2CC2)c(F)c1)[C@@H]1C[C@@H](F)CN1C(=O)CNC(=O)N1CC(F)(F)C1` [Compound 495, (2S,4R)-N-[(S)-(4-cyclopropyl-3-fluorophenyl)(phenyl)methyl]-1-{2-[(3,3-difluoroazetidine-1-carbonyl)amino]acetyl}-4-fluoropyrrolidine-2-carboxamide], for which the IC50 in assay [1] (Homo sapiens, HeLa, 24 h) was 1500 nM; in assay [2], 66 nM; in assay [3], above 100000 nM.

For `O=C(N[C@@H](c1ccccc1)c1ccc(C2CC2)c(F)n1)[C@@H]1C[C@@H](F)CN1C(=O)Cn1cc(N2CCC2)nn1` [Compound 726, (2S,4R)-1-{2-[4-(azetidin-1-yl)-1H-1,2,3-triazol-1-yl]acetyl}-N-[(S)-(5-cyclopropyl-6-fluoropyridin-2-yl)(phenyl)methyl]-4-fluoropyrrolidine-2-carboxamide], the IC50 in assay [1] (Homo sapiens, HeLa, 24 h) was 540 nM; in assay [2], 30 nM; in assay [3], above 100000 nM.

As for `CC(C)c1ccc([C@@H](NC(=O)[C@@H]2C[C@@H](F)CN2C(=O)Cc2cnn[nH]2)c2ccccc2)nc1` [Compound 244, (2S,4R)-1-(2-(1H-1,2,3-triazol-5-yl)acetyl)-4-fluoro-N-((S)-(5-isopropylpyridin-2-yl)(phenyl)methyl)pyrrolidine-2-carboxamide], the IC50 in assay [1] (Homo sapiens, HeLa, 24 h) was 1800 nM; in assay [2], 77 nM; in assay [3], above 100000 nM.

`Cn1c(=O)ccn(CC(=O)N2C[C@H](F)C[C@H]2C(=O)N[C@@H](c2ccccc2)c2ccc(C3(C)CC3)c(F)c2)c1=O` [Compound 569, (2S,4R)-4-fluoro-N-[(S)-[3-fluoro-4-(1-methylcyclopropyl)phenyl](phenyl)methyl]-1-[2-(3-methyl-2,4-dioxo-1,2,3,4-tetrahydropyrimidin-1-yl)acetyl]pyrrolidine-2-carboxamide]: the IC50 in assay [1] (Homo sapiens, HeLa, 24 h) is 960 nM; in assay [2] it was 66 nM; in assay [3], above 100000 nM.

Consider `CCC(C)c1ccc(C(NC(=O)[C@@H]2C[C@@H](F)CN2C(=O)Cc2cnn[nH]2)c2ccccc2)cc1F` (single isomer, unassigned) [Compound 677, (2S,4R)-N-[(S) or (R)-{4-[(2R) or (2S)-butan-2-yl]-3-fluorophenyl} (phenyl)methyl]-4-fluoro-1-[2-(1H-1,2,3-triazol-5-yl)acetyl]pyrrolidine-2-carboxamide], for which the results for the IC50 in assay [1], in assay [2] and in assay [3] were 990 nM, 51 nM and above 100000 nM, respectively.

As for `O=C(N[C@@H](c1ccccc1)c1ccc(C2CC2)c(F)c1)[C@@H]1C[C@@H](F)CN1C(=O)CN1CCN(CC(F)(F)F)CC1=O` [Compound 466, (2S,4R)-N-[(S)-(4-cyclopropyl-3-fluorophenyl)(phenyl)methyl]-4-fluoro-1-{2-[2-oxo-4-(2,2,2-trifluoroethyl)piperazin-1-yl]acetyl}pyrrolidine-2-carboxamide], the IC50 in assay [1] (Homo sapiens, HeLa, 24 h) was 2320 nM; in assay [2], 238 nM; in assay [3], above 100000 nM.

On to `CN1C(=O)C(CC(=O)N2C[C@H](F)C[C@H]2C(=O)N[C@@H](c2ccccc2)c2ccc(C3(C)CC3)c(F)c2)c2ccccc21` (stereo partly drawn) [Compound 577, (2S,4R)-4-fluoro-N-[(S)-[3-fluoro-4-(1-methylcyclopropyl)phenyl](phenyl)methyl]-1-[2-(1-methyl-2-oxo-2,3-dihydro-1H-indol-3-yl)acetyl]pyrrolidine-2-carboxamide], for which the IC50 in assay [1] (Homo sapiens, HeLa, 24 h) amounted to 3980 nM; in assay [2] it was 478 nM; in assay [3], 41200 nM.

As for `CC(C)c1ccc([C@@H](NC(=O)[C@@H]2C[C@@H](F)CN2C(=O)Cc2cccn3c(=O)[nH]nc23)c2ccccc2)nc1` [Compound 258, (2S,4R)-4-fluoro-1-(2-{3-oxo-2H,3H-[1,2,4]triazolo[4,3-a]pyridin-8-yl}acetyl)-N-[(S)-phenyl[5-(propan-2-yl)pyridin-2-yl]methyl]pyrrolidine-2-carboxamide], the IC50 is 740 nM in assay [1] (Homo sapiens, HeLa, 24 h); 26 nM in assay [2]; above 100000 nM in assay [3].

With `O=C(N[C@@H](c1ccccc1)c1ccc(C2CC2)c(F)n1)[C@@H]1[C@H]2C[C@H]2CN1C(=O)Cc1cnn[nH]1` [Compound 320, (1S,2S,5R)-N-[(S)-(5-cyclopropyl-6-fluoropyridin-2-yl)(phenyl)methyl]-3-[2-(1H-1,2,3-triazol-5-yl)acetyl]-3-azabicyclo[3.1.0]hexane-2-carboxamide], the IC50 in assay [1] (Homo sapiens, HeLa, 24 h) is 1590 nM; in assay [2], 197 nM; in assay [3], above 100000 nM.

As for `O=C(N[C@@H](c1ccccc1)c1ccc(C2CC(F)(F)C2)c(F)n1)[C@@H]1C[C@@H](F)CN1C(=O)CNC(=O)N1CCC1` [Compound 503, (2S,4R)-1-{2-[(azetidine-1-carbonyl)amino]acetyl}-N-[(S)-[5-(3,3-difluorocyclobutyl)-6-fluoropyridin-2-yl](phenyl)methyl]-4-fluoropyrrolidine-2-carboxamide], the IC50 in assay [1] (Homo sapiens, HeLa, 24 h) was 240 nM; in assay [2] it was 8 nM; in assay [3] it was above 100000 nM.

For `O=C(N[C@@H](c1ccccc1)c1ccc(C2CC2)c(F)n1)[C@@H]1C[C@@H](F)CN1C(=O)Cn1nccc1C(F)F` [Compound 725, (2S,4R)-N-[(S)-(5-cyclopropyl-6-fluoropyridin-2-yl)(phenyl)methyl]-1-{2-[5-(difluoromethyl)-1H-pyrazol-1-yl]acetyl}-4-fluoropyrrolidine-2-carboxamide], the IC50 in assay [1] (Homo sapiens, HeLa, 24 h) is 310 nM; in assay [2], 15 nM; in assay [3] it was above 100000 nM.

For the molecule `CC(C)c1ccc([C@@H](NC(=O)[C@@H]2C[C@@H](F)CN2C(=O)Cc2[nH]nnc2C(F)(F)F)c2ccccc2)cc1F` [Compound 368, (2S,4R)-4-fluoro-N-[(S)-[3-fluoro-4-(propan-2-yl)phenyl](phenyl)methyl]-1-{2-[4-(trifluoromethyl)-1H-1,2,3-triazol-5-yl]acetyl}pyrrolidine-2-carboxamide], the IC50 in assay [1] (Homo sapiens, HeLa, 24 h) was 150 nM; in assay [2] it was 5 nM; in assay [3], above 82300 nM.

For the molecule `CC(C)c1ccc([C@@H](NC(=O)[C@@H]2C[C@@H](F)CN2C(=O)CCn2nc3ccccn3c2=O)c2ccccc2)nc1F` [Compound 780, (2S,4R)-4-fluoro-N-[(S)-[6-fluoro-5-(propan-2-yl)pyridin-2-yl](phenyl)methyl]-1-{3-{3-oxo-2H,3H-[1,2,4]triazolo[4,3-a]pyridin-2-yl}propanoyl)pyrrolidine-2-carboxamide], the IC50 is 280 nM in assay [1] (Homo sapiens, HeLa, 24 h); 9 nM in assay [2]; above 100000 nM in assay [3].

For the molecule `O=C(N[C@@H](c1ccccc1)c1ccc(C2CC2)c(F)c1)[C@@H]1C[C@@H](F)CN1C(=O)COC(=O)N1CCC1` [Compound 451, 2-[(2S,4R)-2-{[(S)-(4-cyclopropyl-3-fluorophenyl)(phenyl)methyl]carbamoyl}-4-fluoropyrrolidin-1-yl]-2-oxoethyl azetidine-1-carboxylate], the IC50 was 1570 nM in assay [1] (Homo sapiens, HeLa, 24 h); 95 nM in assay [2]; above 100000 nM in assay [3].

With `O=C(NC(c1ccccc1)c1ccc(C2CC2)cn1)[C@@H]1C[C@@H](F)CN1C(=O)Cc1cnn[nH]1` (single isomer, unassigned) [Compound 497, (2S,4R)-1-(2-(1H-1,2,3-triazol-5-yl)acetyl)-N—((S) or (R)-(5-cyclopropylpyridin-2-yl)(phenyl)methyl)-4-fluoropyrrolidine-2-carboxamide], the IC50 is above 5670 nM in assay [1] (Homo sapiens, HeLa, 24 h); 369 nM in assay [2]; above 100000 nM in assay [3].

The record behind these values is patent publication US11814367B2, “Inhibitors of glycogen synthase 1 (GYS1) and methods of use thereof” (Maze Therapeutics, Inc., priority 2021, dated 2023).
